Source: US12083101B2, “Biaryl derivatives as YAP/TAZ-TEAD protein-protein interaction inhibitors” (Novartis AG, priority 2020, dated 2024)
Like-named read-outs stand apart in the source and are kept apart here.

Tests used:
[1] = target: Avi-humanTEAD4 217-434 / Cy5 labeled humanYAP 60-100 (Homo sapiens (Human), UniProt Q15561); assay: TR-FRET YAP-TEAD4 in-vitro biochemical assay; format: binding; conditions: 1 nM Avi-humanTEAD4 217-434, 20 nM Cy5-humanYAP 60-100, 1 h room temperature
[2] = test system: NCI-H2052 Tet-On shYAP_2371 pLenti6 MCAT_Luc cells (YAP-dependent transcription); assay: YAP reporter gene activity assay (MCAT-luciferase), NCI-H2052; format: cell-based; conditions: 24 hours incubation, BrightGlo luminescence
In short: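 NCI-H2052 cells carrying an MCAT-luciferase reporter and a tetracycline-inducible YAP 3′UTR shRNA were treated with eleven 2-fold compound dilutions (0.1% DMSO) for 24 h at 37 °C. BrightGlo luminescence was background-subtracted and expressed as % of DMSO control. IC50 came from a four-parameter fit; MKN-45/Ubc-luc cells served as the specificity counterscreen.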

[3] = test system: NCI-H2052 Tet-On shYAP_2371 pLenti6 MCAT_Luc cells; assay: Proliferation assay (resazurin), NCI-H2052; format: cell-based; conditions: 72 hours incubation
In short: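 The NCI-H2052 line carries a Tet-inducible shRNA against the YAP1 3′UTR and an MCAT luciferase reporter. The day after seeding, it received eleven 2-fold compound dilutions at 0.1% DMSO, and viability was read by resazurin fluorescence.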

MKN-45/Ubc-luc cells [4] = assay: Proliferation assay (resazurin), MKN-45; format: cell-based; conditions: 72 hours incubation
MKN-45/Ubc-luc cells [5] = assay: Reporter gene specificity control (Ubc-luciferase), MKN-45
Description: As a specificity control, MKN-45 cells were stably transduced with a Ubc-Luc reporter construct, in which constitutive expression of firefly luciferase is driven by the promoter of the ubiquitin C housekeeping gene.
Stock solutions of compounds were prepared at a concentration of 10 mM in DMSO and stored at 4° C. Where necessary to afford a full dose-response curve, the stock solutions were pre-diluted in DMSO to 1'000-fold the desired reduced start concentration. On the day after cell seeding, eleven 2-fold serial dilutions of each compound were dispensed directly into the cell assay plates using a HP 300D non-contact Digital Dispenser (TECAN, Mannedorf, Switzerland). The final concentration of DMSO was normalized to 0.1% in all wells.
The ability of compounds to inhibit YAP-dependent transcription was assessed in NCI-H2052 Tet-On shYAP_2371 pLenti6 MCAT_Luc cells, while specificity (lack of unspecific inhibition of luciferase expression of activity) was assessed in MKN-45/Ubc-luc cells. […] Following incubation for 24 hours at 37° C., compound-mediated modulation of reporter-gene activity was quantified 5 min after addition of 20 μl BrightGlo (Promega, Cat #E2620), by measuring luminescence intensity on a multi-mode plate-reader (TECAN, Männedorf, Switzerland, Integration time 100 ms). For data analysis, the assay background value determined in wells containing medium, but no cells, was subtracted from all data points. Dose-dependent compound effects were expressed as % of vehicle-treated control (luminescence signal produced by cells receiving DMSO only) and IC50s calculated using a four-parametric fit model.

[6] = Homo sapiens, MKN-45, 24 h, read-out: Reporter gene assay MKN-45 IC50 [μM], MKN-45/Ubc-luc cells (YAP deleted, specificity control), 24 hours incubation
[7] = read-out: Reporter gene assay MKN-45 IC50, MKN-45/Ubc-luc cells (YAP deleted, specificity control), 24 hours incubation

Chain of Avi-humanTEAD4 217-434 / Cy5 labeled humanYAP 60-100 (Q15561 217-434): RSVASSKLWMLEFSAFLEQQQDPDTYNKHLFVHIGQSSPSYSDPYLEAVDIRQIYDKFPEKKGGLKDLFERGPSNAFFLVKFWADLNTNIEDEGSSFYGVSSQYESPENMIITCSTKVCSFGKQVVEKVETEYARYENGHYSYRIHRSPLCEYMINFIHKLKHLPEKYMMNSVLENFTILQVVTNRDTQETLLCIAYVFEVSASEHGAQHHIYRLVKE

IC50 [1]	IC50 ([2]; Homo sapiens, NCI-H2052, 24 h)	GI50 ([3]; Homo sapiens, NCI-H2052, 72 h)	GI50 (MKN-45/Ubc-luc cells [4]; Homo sapiens)	IC50 (MKN-45/Ubc-luc cells [5]; [6])	IC50 [2]	GI50 [3]	GI50 (MKN-45/Ubc-luc cells [4])	IC50 (MKN-45/Ubc-luc cells [5]; [7])	Compound
3 nM	25 nM	23 nM	> 10000 nM	> 10 µM					CNC[C@]1(c2ccccc2)Oc2cc(F)c(Cl)c(-c3c(C(N)=O)ccc(OC)c3F)c2[C@@H]1COC (atropisomer, axis not shown) [Example 146, 2-((2S,3R,4S)-5-Chloro-6-fluoro-3-(methoxymethyl)-2-((methylamino)methyl)-2-phenyl-2,3-dihydrobenzofuran-4-yl)-3-fluoro-4-methoxybenzamide]
20 nM	600 nM	590 nM	> 10000 nM	> 10 µM					NC[C@@]1(c2ccccc2)Cc2c(ccc(Cl)c2-c2c(F)cccc2C(N)=O)O1 (atropisomer, axis not shown) [Example 4a-1, 2-((2S,4S)-2-(aminomethyl)-5-chloro-2-phenyl-2,3-dihydrobenzofuran-4-yl)-3-fluorobenzamide]
2 nM	15 nM	22 nM	> 10000 nM	> 10 µM					NC(=O)c1ccc(OCCO)c(F)c1-c1c(Cl)c(F)cc2c1C[C@](c1ccccc1)([C@@H]1CCCN1)O2 (atropisomer, axis not shown) [Example 151, 2-((2S,4S)-5-Chloro-6-fluoro-2-phenyl-2-((S)-pyrrolidin-2-yl)-2,3-dihydrobenzofuran-4-yl)-3-fluoro-4-(2-hydroxyethoxy)benzamide]
11 nM	671 nM	1180 nM	> 7500 nM	> 10 µM					CNC[C@]1(c2cccc(O)n2)Oc2cc(F)c(Cl)c(-c3c(C(N)=O)ccc(OC)c3F)c2[C@@H]1C (atropisomer, axis not shown) [Example 125, 2-((2R,3S,4S)-5-Chloro-6-fluoro-2-(6-hydroxypyridin-2-yl)-3-methyl-2-((methylamino)methyl)-2,3-dihydrobenzofuran-4-yl)-3-fluoro-4-methoxybenzamide]
3 nM	119 nM	129 nM	> 10000 nM	> 10 µM					COc1ccc(C(N)=O)c(-c2c(Cl)ccc3c2[C@H](O)[C@@](CN)(c2ccccc2)O3)c1F (atropisomer, axis not shown) [Example 86, 2-((2S,3S,4S)-2-(Aminomethyl)-5-chloro-3-hydroxy-2-phenyl-2,3-dihydrobenzofuran-4-yl)-3-fluoro-4-methoxybenzamide]
9 nM	157 nM	256 nM	> 10000 nM	> 20 µM					CNC(=O)c1ccc(OC)c(F)c1-c1c(Cl)ccc2c1C[C@@](CN)(c1ccccc1)O2 (atropisomer, axis not shown) [Example 22, 2-((2S,4S)-2-(Aminomethyl)-5-chloro-2-phenyl-2,3-dihydrobenzofuran-4-yl)-3-fluoro-4-methoxy-N-methylbenzamide]
19 nM	596 nM	1600 nM	> 10000 nM	> 10 µM					COc1ccc(C(N)=O)c(-c2c(Cl)ccc3c2[C@H](O)[C@@](CN)(c2ccccn2)O3)c1F (atropisomer, axis not shown) [Example 89, 2-((2R,3S,4S)-2-(Aminomethyl)-5-chloro-3-hydroxy-2-(pyridin-2-yl)-2,3-dihydrobenzofuran-4-yl)-3-fluoro-4-methoxybenzamide]
< 1 nM	14 nM	13 nM	> 10000 nM	> 10 µM					COCCOc1ccc(C(N)=O)c(-c2c(Cl)c(F)cc3c2[C@H](C)[C@@](CN)(c2ccccc2)O3)c1F (atropisomer, axis not shown) [Example 106, 2-((2S,3S,4S)-2-(aminomethyl)-5-chloro-6-fluoro-3-methyl-2-phenyl-2,3-dihydrobenzofuran-4-yl)-3-fluoro-4-(2-methoxyethoxy)benzamide]
176 nM	5720 nM	7050 nM	> 10000 nM	> 10 µM					COc1ccc(C(N)=O)c(-c2c(C(F)(F)F)ccc3c2C[C@@](CN)(c2ccccc2)O3)c1 (atropisomer, axis not shown) [Example 128, 2-((2S,4R)-2-(Aminomethyl)-2-phenyl-5-(trifluoromethyl)-2,3-dihydrobenzofuran-4-yl)-4-methoxybenzamide]
1520 nM	1000 nM	1760 nM	> 10000 nM	> 10 µM					Fc1cc2c(c(-c3ccccc3)c1Cl)C[C@](c1ccccc1)(C1COCCN1)O2 (single isomer, unassigned) [Example 162]
11 nM	1230 nM	1070 nM	> 10000 nM	> 10 µM					C[C@H]1c2c(cc(F)c(Cl)c2-c2c(OCCO)ccc(F)c2F)O[C@]1(CN)c1ccccc1 (atropisomer, axis not shown) [Example 124, 2-(2-((2S,3S,4S)-2-(Aminomethyl)-5-chloro-6-fluoro-3-methyl-2-phenyl-2,3-dihydrobenzofuran-4-yl)-3,4-difluorophenoxy)ethan-1-ol]
5 nM	93 nM	181 nM	> 10000 nM	> 10 µM					NC(=O)c1ccc(OC(F)F)c(F)c1-c1c(Cl)c(F)cc2c1C[C@](c1ccccc1)(C1CC(O)CN1)O2 (single isomer, unassigned) [Example 158]
6 nM					104 nM	167 nM	> 10000 nM	> 10 µM	CN(C)C(=O)C1CCC(NC[C@@]2(c3ccccc3)Cc3c(cc(F)c(Cl)c3-c3c(C(N)=O)ccc(OC(F)F)c3F)O2)CC1 (single isomer, unassigned) [Example 58b]
2 nM	22 nM	28 nM	> 10000 nM	> 10 µM					C[C@H]1c2c(cc(F)c(Cl)c2-c2c(C(N)=O)cnc(OCCO)c2F)O[C@]1(CN[C@H]1CC[C@](C)(O)CC1)c1ccccc1 (atropisomer, axis not shown) [Example 119]
22 nM	1430 nM	1700 nM	> 10000 nM	> 10 µM					COc1cccc([C@@]2(CN)Oc3ccc(Cl)c(-c4c(C(N)=O)ccc(OC(F)F)c4F)c3[C@@H]2O)n1 (atropisomer, axis not shown) [Example 90, 2-((2R,3S,4S)-2-(Aminomethyl)-5-chloro-3-hydroxy-2-(6-methoxypyridin-2-yl)-2,3-dihydrobenzofuran-4-yl)-4-(difluoromethoxy)-3-fluorobenzamide]
1 nM	11 nM	5 nM	> 3300 nM	> 3.3 µM					CNC[C@]1(c2ccccc2)Oc2cc(F)c(Cl)c(-c3c(C(N)=O)ccc(OC)c3F)c2[C@@H]1CO (atropisomer, axis not shown) [Example 147, 2-((2S,3R,4S)-5-Chloro-6-fluoro-3-(hydroxymethyl)-2-((methylamino)methyl)-2-phenyl-2,3-dihydrobenzofuran-4-yl)-3-fluoro-4-methoxybenzamide]
2 nM	15 nM	36 nM	> 10000 nM	> 10 µM					NC(=O)c1ccc(OCCO)c(F)c1-c1c(Cl)c(F)cc2c1C[C@@](CN[C@H]1C[C@H](CO)C1)(c1ccccc1)O2 (atropisomer, axis not shown) [Example 64a, 2-((2S,4S)-5-chloro-6-fluoro-2-((((trans)-3-(hydroxymethyl)cyclobutyl)amino)methyl)-2-phenyl-2,3-dihydrobenzofuran-4-yl)-3-fluoro-4-(2-hydroxyethoxy)benzamide]
11 nM					194 nM	372 nM	> 10000 nM	7.6 µM	CC(=O)NC1CCC(NC[C@@]2(c3ccccc3)Cc3c(cc(F)c(Cl)c3-c3c(C(N)=O)ccc(OC(F)F)c3F)O2)CC1 (single isomer, unassigned) [Example 56b]
2 nM	10 nM	10 nM	> 8000 nM	> 8 µM					CNC[C@]1(c2ccccc2)Oc2cc(F)c(Cl)c(-c3c(C(N)=O)ccc(OC)c3F)c2[C@@H]1C (atropisomer, axis not shown) [Example 144, 2-((2S,3S,4S)-5-Chloro-6-fluoro-3-methyl-2-((methylamino)methyl)-2-phenyl-2,3-dihydrobenzofuran-4-yl)-3-fluoro-4-methoxybenzamide]
2 nM	23 nM	26 nM	> 10000 nM	> 10 µM					NC(=O)c1ccc(OCCO)c(F)c1-c1c(Cl)c(F)cc2c1[C@H](O)[C@@](CNC1CCC1)(c1ccccc1)O2 (atropisomer, axis not shown) [Example 99, 2-((2S,3S,4S)-5-Chloro-2-((cyclobutylamino)methyl)-6-fluoro-3-hydroxy-2-phenyl-2,3-dihydrobenzofuran-4-yl)-3-fluoro-4-(2-hydroxyethoxy)benzamide]
